Measured values: patent US20220153732A1, “PROTEIN SECRETION INHIBITORS” (KEZAR LIFE SCIENCES, priority 2019, published 2022)
Read-outs that look alike come from different tables or passages of the source.

Experiments:
Format in all cases: cell-based
[1] = test system: PD1-ss+10aa/Gaussia Luciferase; test: Dox-Induced PD1-ss-Gluc Assay
How it was run: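 Stable cell line carrying PD1-ss+10aa/Gaussia luciferase cDNA under T-REx (doxycycline-inducible) control, plated the day before assay. Compound dilutions in DMSO/media containing doxycycline added and incubated at 37° C, 5% CO2. Undefined stereocentres: data refer to stereoisomer mixtures.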

[2] = test system: TNFα-FL/Gaussia Luciferase; test: Dox Induced TNFα-FL-Gluc Assay
How it was run: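 A stable T-REx cell line carrying doxycycline-inducible TNFα-FL/Gaussia luciferase was plated the day before assay. Compound dilutions in DMSO/media containing doxycycline were then added and incubated at 37° C, 5% CO2.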

[3] = test system: HER3-ss+4aa/Gaussia Luciferase; test: Dox-Induced Her3-ss-Gluc Assay
How it was run: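 Stable T-REx cell line carrying a doxycycline-regulated HER3-ss+4aa/Gaussia luciferase insert, plated the day before assay. Compound dilutions in DMSO/media with doxycycline added, then incubated at 37° C., 5% CO2. Stereoisomer mixtures tested where stereochemistry is not drawn.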

[4] = test system: IL-2-FL/Gaussia Luciferase; test: Dox Induced IL2-FL-Gluc Assay
How it was run: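 Stable T-REx cell line expressing doxycycline-inducible IL-2-FL/Gaussia luciferase cDNA, plated the day before assay. Compound dilutions in DMSO/media containing doxycycline added and incubated at 37° C., 5% CO2. Unspecified stereochemistry means data refer to a stereoisomer mixture.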

[5] = test system: human multiple myeloma cell line NCI-H929; test: H929 Cell Viability Assay; settings: 48 hr, NCI-H929 cells, Celltiter-Glo, read-out: 48 hr H929 Viability Celltiter-Glo: Mean EC50
Description: Plates were incubated at 37° C., 5% CO2 for 48 hours. After 48 hours, Celltiter-Glo® (Promega) was added to each well and luciferase signal was quantified using Tecan Infinite M1000 Pro for cell viability determination.
For chemical structures that include one or more stereoisomers, but are illustrated without indicating stereochemistry, the assay data refers to a mixture of stereoisomers.

[6] = test system: human multiple myeloma cell line U266B1; test: U266 Cell Viability Assay; settings: U-266, 48 hr, U266B1 cells, Celltiter-Glo, read-out: 48 hr U266 Viability Celltiter-Glo: Mean EC50
How it was run: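 U266B1 myeloma cells treated with compound dilutions in DMSO/media for 48 h at 37 °C, 5% CO2. Viability read by CellTiter-Glo luminescence. Stereochemically undefined structures were tested as stereoisomer mixtures.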

[7] = 24 hr, doxycycline-induced, 293FRT/TO cells; read-out: 24 hr Dox Inducible PD1ssGluc 293FRT/TO: Mean IC50
[8] = 24 hr, doxycycline-induced, 293FRT/TO cells; read-out: 24 hr Dox Inducible TNFaFLGluc 293FRT/TO: Mean IC50
[9] = 24 hr, doxycycline-induced, 293FRT/TO cells; read-out: 24 hr Dox Inducible Her3(ss + 4)Gluc 293FRT/TO: Mean IC50
[10] = 24 hr, doxycycline-induced, 293FRT/TO cells; read-out: 24 hr Dox Inducible IL2FLGIuc 293FRT/TO: Mean IC50
[11] = 24 hr doxycycline induction, 293FRT/TO cells, Gaussia luciferase signal; read-out: 24 hr Dox Inducible PD1ssGluc 293FRT/TO: Mean IC50
[12] = 24 hr doxycycline induction, 293FRT/TO cells, Gaussia luciferase signal; read-out: 24 hr Dox Inducible TNFaFLGluc 293FRT/TO: Mean IC50
[13] = 24 hr doxycycline induction, 293FRT/TO cells, Gaussia luciferase signal; read-out: 24 hr Dox Inducible Her3(ss + 4)Gluc 293FRT/TO: Mean IC50
[14] = 24 hr doxycycline induction, 293FRT/TO cells, Gaussia luciferase signal; read-out: 24 hr Dox Inducible IL2FLGIuc 293FRT/TO: Mean IC50

Row | Compound | EC50 [5] | EC50 [6] | IC50 [1, 7] | IC50 [2, 8] | IC50 [3, 9] | IC50 [4, 10] | IC50 [1, 11] | IC50 [2, 12] | IC50 [3, 13] | IC50 [4, 14] | IC50 ([1]; read-out: 24 hr Dox Inducible PD1ssGluc 293FRT/TO: Mean IC50; 24 hr doxycycline induction, 293FRT/TO cells, Gaussia luciferase signal) | IC50 ([2]; read-out: 24 hr Dox Inducible TNFaFLGluc 293FRT/TO: Mean IC50; 24 hr doxycycline induction, 293FRT/TO cells, Gaussia luciferase signal) | IC50 ([3]; read-out: 24 hr Dox Inducible Her3(ss + 4)Gluc 293FRT/TO: Mean IC50; 24 hr doxycycline induction, 293FRT/TO cells, Gaussia luciferase signal) | IC50 ([4]; read-out: 24 hr Dox Inducible IL2FLGIuc 293FRT/TO: Mean IC50; 24 hr doxycycline induction, 293FRT/TO cells, Gaussia luciferase signal)
1 | CC(C)OC(C)(C)c1csc(NC(=O)c2cccn2CC2CC(=O)N(C)C2)n1 (stereo not drawn) [Compound A210, N-(4-(2-isopropoxypropan-2-yl)thiazol-2-yl)-1-((1-methyl-5-oxopyrrolidin-3-yl)methyl)-1H-pyrrole-2-carboxamide] | > 25000 nM | > 25000 nM | – | – | – | – | – | – | – | – | > 25000 nM | > 25000 nM | > 25000 nM | > 25000 nM
2 | O=C(Nc1nc([C@H]2CCCN2c2ccc3c(c2)OCO3)cs1)c1cccn1Cc1ccncc1 [Compound A359] | 382 nM | > 25000 nM | 11 nM | 83 nM | 13 nM | 15 nM | – | – | – | – | – | – | – | –
3 | CC(C)OC(C)(C)c1csc(NC(=O)c2cc(C(=O)N(C)C)cn2Cc2ccncc2)n1 [Compound A111, N2-(4-(2-isopropoxypropan-2-yl)thiazol-2-yl)-N4,N4-dimethyl-1-(pyridin-4-ylmethyl)-1H-pyrrole-2,4-dicarboxamide] | > 25000 nM | > 25000 nM | – | – | – | – | > 25000 nM | > 25000 nM | > 25000 nM | > 25000 nM | – | – | – | –
4 | O=C(Nc1nc(Cc2ccccc2)cs1)c1cccn1CCCc1ccncc1 [Compound A184, N-(4-benzylthiazol-2-yl)-1-(3-(pyridin-4-yl)propyl)-1H-pyrrole-2-carboxamide] | 11800 nM | 13300 nM | – | – | – | – | 448 nM | 2410 nM | 807 nM | 1080 nM | – | – | – | –
5 | CC(C)(OCC1CCOCC1)c1csc(NC(=O)c2cccn2Cc2ccncc2)n1 [Compound A40, 1-(pyridin-4-ylmethyl)-N-(4-(2-((tetrahydro-2H-pyran-4-yl)methoxy)propan-2-yl)thiazol-2-yl)-1H-pyrrole-2-carboxamide] | > 25000 nM | > 25000 nM | – | – | – | – | 858 nM | 12600 nM | 1560 nM | 1210 nM | – | – | – | –
6 | Cc1csc(N(C)C(=O)c2cccn2Cc2ccncc2)n1 [Compound A118] | > 25000 nM | > 25000 nM | – | – | – | – | > 25000 nM | > 25000 nM | > 25000 nM | > 25000 nM | – | – | – | –
7 | O=C(Nc1nc([C@H]2C[C@@H](O)CN2c2ccccc2)cs1)c1cccn1Cc1ccncc1 [Compound A321] | 9730 nM | > 25000 nM | 215 nM | 4170 nM | 902 nM | 948 nM | – | – | – | – | – | – | – | –
8 | CC(C)OC(C)(C)c1csc(NC(=O)c2ccnn2Cc2ccncc2)n1 [Compound A112, N-(4-(2-isopropoxypropan-2-yl)thiazol-2-yl)-1-(pyridin-4-ylmethyl)-1H-pyrazole-5-carboxamide] | > 25000 nM | > 25000 nM | – | – | – | – | > 25000 nM | > 25000 nM | > 25000 nM | > 25000 nM | – | – | – | –
9 | C[C@H](OC(C)(C)c1csc(NC(=O)c2cccn2Cc2ccncc2)n1)c1ccccc1 [Compound A1, (S)-N-(4-(2-(1-phenylethoxy)propan-2-yl)thiazol-2-yl)-1-(pyridin-4-ylmethyl)-1H-pyrrole-2-carboxamide] | 1880 nM | > 25000 nM | – | – | – | – | 24 nM | 401 nM | 55 nM | 93 nM | – | – | – | –
10 | C[C@H](OC(C)(C)c1csc(NC(=O)c2cccn2CCCc2ccncc2)n1)c1ccccc1 [Compound A6, (S)-N-(4-(2-(1-phenylethoxy)propan-2-yl)thiazol-2-yl)-1-(3-(pyridin-4-yl)propyl)-1H-pyrrole-2-carboxamide] | 2170 nM | 6220 nM | – | – | – | – | 46 nM | 541 nM | 88 nM | 78 nM | – | – | – | –
11 | O=C(Nc1nc(/C=C/C2CCOCC2)cs1)c1cccn1Cc1ccncc1 [Compound A153, 1-(pyridin-4-ylmethyl)-N-(4-(2-(tetrahydro-2H-pyran-4-yl)vinyl)thiazol-2-yl)-1H-pyrrole-2-carboxamide] | > 25000 nM | > 25000 nM | – | – | – | – | 902 nM | > 25000 nM | 1550 nM | 4070 nM | – | – | – | –
12 | CNC(=O)c1ccc(/C=C/c2csc(NC(=O)c3cccn3Cc3ccncc3)n2)cc1 [Compound A239] | > 25000 nM | > 25000 nM | – | – | – | – | 1510 nM | > 25000 nM | > 25000 nM | > 25000 nM | – | – | – | –
13 | O=C(Nc1nc(C2CCc3ccccc3O2)cs1)c1cccn1CCCc1ccncc1 (stereo not drawn) [Compound A286] | 9570 nM | 15700 nM | – | – | – | – | 1280 nM | 6170 nM | 2420 nM | 3930 nM | – | – | – | –

More lines, main results first:

Row | EC50 [5] | EC50 [6] | IC50 [1, 7] | IC50 [2, 8] | IC50 [3, 9] | IC50 [4, 10] | IC50 [1, 11] | IC50 [2, 12] | IC50 [3, 13] | IC50 [4, 14] | Compound | IC50 ([1]; read-out: 24 hr Dox Inducible PD1ssGluc 293FRT/TO: Mean IC50; 24 hr doxycycline induction, 293FRT/TO cells, Gaussia luciferase signal) | IC50 ([2]; read-out: 24 hr Dox Inducible TNFaFLGluc 293FRT/TO: Mean IC50; 24 hr doxycycline induction, 293FRT/TO cells, Gaussia luciferase signal) | IC50 ([3]; read-out: 24 hr Dox Inducible Her3(ss + 4)Gluc 293FRT/TO: Mean IC50; 24 hr doxycycline induction, 293FRT/TO cells, Gaussia luciferase signal) | IC50 ([4]; read-out: 24 hr Dox Inducible IL2FLGIuc 293FRT/TO: Mean IC50; 24 hr doxycycline induction, 293FRT/TO cells, Gaussia luciferase signal)
14 | > 25000 nM | > 25000 nM | – | – | – | – | 706 nM | 14800 nM | 1200 nM | 1410 nM | Cc1sc(NC(=O)c2cccn2Cc2ccncc2)nc1C(C)C [Compound A38] | – | – | – | –
15 | 9270 nM | 19900 nM | – | – | – | – | 152 nM | 929 nM | 367 nM | 500 nM | O=C(Nc1nc(CCc2ccccc2Cl)cs1)c1cccn1Cc1ccncc1 [Compound A178] | – | – | – | –
16 | 15600 nM | > 25000 nM | – | – | – | – | 105 nM | 1580 nM | 195 nM | 158 nM | CC(C)(OC1CCCCC1)c1csc(NC(=O)c2cccn2Cc2ccncc2)n1 [Compound A10, N-(4-(2-(cyclohexyloxy)propan-2-yl)thiazol-2-yl)-1-(pyridin-4-ylmethyl)-1H-pyrrole-2-carboxamide] | – | – | – | –
17 | > 25000 nM | > 25000 nM | – | – | – | – | 1090 nM | 25000 nM | 2210 nM | 3110 nM | Cc1sc(NC(=O)c2cccn2Cc2ccncc2)nc1C1CC1 [Compound A47] | – | – | – | –
18 | > 23900 nM | > 25000 nM | – | – | – | – | 185 nM | 5010 nM | 377 nM | 266 nM | CC(C)OC(C)(C)c1csc(NC(=O)c2cccn2Cc2ccncc2)n1 [Compound A16, N-(4-(2-isopropoxypropan-2-yl)thiazol-2-yl)-1-(pyridin-4-ylmethyl)-1H-pyrrole-2-carboxamide] | – | – | – | –
19 | 15200 nM | > 19800 nM | – | – | – | – | 89 nM | 1580 nM | 423 nM | 617 nM | COc1ccc(C#Cc2csc(NC(=O)c3cccn3Cc3ccncc3)n2)cc1 [Compound A143] | – | – | – | –
20 | > 25000 nM | > 25000 nM | – | – | – | – | 4620 nM | > 25000 nM | 23000 nM | > 25000 nM | COCc1csc(NC(=O)c2cccn2Cc2ccncc2)n1 [Compound A81] | – | – | – | –
21 | > 25000 nM | > 25000 nM | – | – | – | – | 319 nM | 10700 nM | 817 nM | 759 nM | CC(C)c1csc(NC(=O)c2cccn2Cc2ccncc2)n1 [Compound A26, N-(4-isopropylthiazol-2-yl)-1-(pyridin-4-ylmethyl)-1H-pyrrole-2-carboxamide] | – | – | – | –
22 | 18800 nM | > 25000 nM | – | – | – | – | 148 nM | 3300 nM | 382 nM | 648 nM | O=C(Nc1nc(CCc2ccccc2)cs1)c1cccn1Cc1ccncc1 [Compound A13, N-(4-phenethylthiazol-2-yl)-1-(pyridin-4-ylmethyl)-1H-pyrrole-2-carboxamide] | – | – | – | –
